For one test, the target named is LDLR (Homo sapiens, UniProt P01130). The test can be described thus: KD (µM). From the text: Table printed on a drawing sheet, FIG. 23
Title: Buffer: HBS + 0.05% P20
Head of the field: KD (µM)
The patent's description of the figure: FIG. 23 is a table showing the binding kinetics results of LDLR binding assays (SPR), high surfactant preparation as described herein for select peptides shown in FIG. 1A-1I.
First copying reader's note: Middle of three side-by-side panels of FIG. 23; the KD cells hold value ± error together.
Where the first naming reader finds the target: description_of_the_figure: FIG. 23 is a table showing the binding kinetics results of LDLR binding assays (SPR)

Test [1] concerns ARPE-19 cells. Description: ARPE-19 cell lysis (Sytox Green). The note with it: 3.16-100 μM peptide, 2 h. It is filed as cell-based, human. How it is done:
These figures illustrate ARPE-19 cell lysis. ARPE-19 cells were grown in 96-well plates to 75-85% confluence. Peptides at 10 mM were diluted in serum-free DMEM:F12 media into a 20 μM working solution (a 2× solution). Sytox Green was prepared in serum-free DMEM:F12 at a 1 μM working solution (a 2× solution). Equivalent volumes of the peptide and Sytox Green solutions were added to empty 96-well plates and mixed gently. Final peptide concentration was 10 μM. ARPE-19 cells (˜80% confluent in 96-well plates) were washed with DPBS and then incubated in 100 μL of peptide/Sytox Green mixture for 2 h at 37° C. Cells were fixed in 4% paraformaldehyde solution in DPBS and then incubated in 10 μM Hoechst solution for 10 min, washed, and imaged on a Yokogawa CQ1 high-content imager. CellPathfinder software was used to count live/dead cells in 4 fields of view at 20× magnification. Percent (%) lysis was calculated by dividing the number of Sytox Green+ nuclei by the total number of Hoechst+ nuclei.
ARPE-19 cells were grown in 96-well plates to 75-85% confluence. Peptides at 10 mM were diluted in serum-free DMEM: F12 media to solutions between […]. Sytox Green was prepared in serum-free DMEM: F12 media at a 1 μM working solution. Equivalent volumes of the peptide and Sytox Green solutions were added to empty 96-well plates and mixed gently. Final peptide concentration was 3.16-100 μM. ARPE-19 cells (˜80% confluent in 96-well plates) were washed with DPBS and then incubated in 100 μL of peptide/Sytox Green mixture for 2 h at 37° C. Cells were fixed in 4% paraformaldehyde solution in DPBS and then incubated in 10 μM Hoechst solution for 10 min, washed, and imaged on a Yokogawa CQ1 high-content imager. CellPathfinder software was used to count live/dead cells in 4 fields of view at 20× magnification. Percent (%) lysis was calculated by dividing the number of Sytox Green+ nuclei by the total number of Hoechst+ nuclei. Non-linear regression was used to calculate EC50 values.

Test [2] concerns HepG2 cells. Description: HepG2 cholesterol import (BODIPY-Cholesterol). The note with it: HepG2, peptide:lipid complexes from 30 μM diluted 1:3. The class given is cell-based.
Protocol: HepG2 cells were seeded on a 96-well plate at 10,000 cells per well and grown to confluence. A solution of 500 μM DMPC and 50 μM BODIPY-Cholesterol was prepared in serum free EMEM. Peptides were diluted to 20 μM in serum free EMEM (a 2× solution). Peptides were added to lipid solution in equal parts (60 μL each) to create final 1× concentration and incubated for 1 hour at 37° C. HepG2 cells were serum starved in serum-free EMEM for 1 hour at 37° C. Peptide: Lipid complexes (100 μL total volume per well) were transferred to HepG2 cells for 2 hours at 37° C. Cells were washed, fixed, and intracellular fluorescence was read on Promega GloMax at 475 nm excitation, 500-550 emission. Fluorescence values were background corrected from no treatment conditions. Data are presented as mean+SD for two runs.
HepG2 cells were seeded on 96-well plates at 10,000 cells per well and grown to confluence. Peptide: Lipid complexes were created by preparing a solution of serum-free EMEM containing 30 μM peptide, 750 μM DMPC, and 75 μM BODIPY-Cholesterol. Peptide: Lipid complexes were serially diluted 1:3 for 5 concentrations, and incubated for 1 hour at 37° C. […] Cells were washed, fixed, and intracellular fluorescence was read on Promega GloMax at 475 nm excitation, 500-550 emission. Fluorescence values were background corrected from no treatment conditions. […]
The nature of test [3]: DMPC solubility assay, 0.5 mM DMPC (turbidity reduction). The class given is biochemical. A digest of the protocol:
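Peptides (100 μM final, or 3.16-100 μM for titrations) incubated with 0.5 mM DMPC in water for 15 minutes at room temperature. Turbidity read as absorbance at 405 nm; EC50 from non-linear regression, mean+SD over two runs.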

The test system of test [4] is ARPE-19 cells. Description: ARPE-19 cholesterol import (BODIPY-Cholesterol). The class given is cell-based, human. The note with it: ARPE-19, 0.37-30 μM peptide, FIG. 15. On the procedure:
(§1) FIG. 12 and FIGS. 14A-14B illustrate the results of ARPE-19 cholesterol import testing. ARPE-19 cells were seeded on 96-well plates at 25,000 cells per well and grown to confluence. A 2× solution of 500 μM DMPC and 50 μM BODIPY-Cholesterol were prepared in serum free DMEM: F12. Peptides were diluted to 20 μM in serum free DMEM: F12 (a 2× solution). Peptides were added to lipid solution in equal parts (60 μL each) and were incubated for 1 hour at 37° C. ARPE-19 cells were serum starved in serum free DMEM: F12 for 1 hour at 37° C. Peptide: Lipid complexes (100 μL total volume per well) were transferred to ARPE-19 cells for 2 hours at 37° C. Cells were washed, fixed, and intracellular fluorescence was read on Promega GloMax at 475 nm excitation, 500-550 emission. Fluorescence values were background corrected from no treatment conditions. Data are presented as mean+SD for two runs.
FIG. 15 illustrates ARPE-19 cholesterol import titration curves for a subset of the peptides. ARPE-19 cells were seeded on 96-well plates at 25,000 cells per well and grown to confluence. A 2× solution of 500 μM DMPC and 50 μM BODIPY-Cholesterol was prepared in serum free DMEM: F12. Peptides were diluted to 0.74-60 μM in serum free DMEM: F12 (2× solutions). Peptides were added to lipid solution in equal parts (60 μL each) to create final peptide concentrations of 0.37-30 µM and incubated for 1 hour at 37° C. ARPE-19 cells were serum starved in serum free DMEM: F12 for 1 hour at 37° C. Peptide: Lipid complexes (100 μL total volume per well) were transferred to ARPE-19 cells for 2 hours at 37° C. Cells were washed, fixed, and intracellular fluorescence was read on Promega GloMax at 475 nm excitation, 500-550 emission. Fluorescence values were background corrected from no treatment conditions. […]
ARPE-19 cells were seeded on 96-well plates at 25,000 cells per well and grown to confluence. […] Cells were washed, fixed, and intracellular fluorescence was read on Promega GloMax at 475 nm excitation, 500-550 emission. Fluorescence values were background corrected from no treatment conditions. […]

The subject of test [5] is ARPE-19 cells. The test can be described thus: ARPE-19 GAG-dependent cholesterol import (with or without heparin). It is filed as cell-based, human. The note with it: ARPE-19, 10 μM peptide. How it is done:
as §1, with “ARPE-19” for “FIG. 12 and FIGS. 14A-14B illustrate the results of ARPE-19 cholesterol import testing. ARPE-19”, “BODIPY-Cholesterol with or without 100 µg/mL heparin was” for “BODIPY-Cholesterol were”, “and” for “and were”, “presented ±SD” for “presented as mean+SD”, “for 2” for “for two”

For test [6], the system named is HepG2 cells. Description: HepG2 GAG dependent cholesterol import (with or without heparin). The note with it: HepG2, 10 μM peptide, with or without 100 μg/mL heparin. It is filed as cell-based. How it is done: HepG2 cells were seeded on 96-well plates at 10,000 cells per well and grown to confluence. A 2× solution of 500 μM DMPC and 50 μM BODIPY-Cholesterol with or without 100 μg/mL heparin was prepared in serum free EMEM. Peptides were diluted to 20 μM in serum-free EMEM (a 2× solution). Peptides were added to lipid solution in equal parts (60 μL each) and incubated for 1 hour at 37° C. HepG2 cells were serum starved in serum-free EMEM for 1 hour at 37° C. Peptide: Lipid complexes (100 μL total volume per well) were transferred to HepG2 cells for 2 hours at 37° C. Cells were washed, fixed, and intracellular fluorescence was read on Promega GloMax at 475 nm excitation, 500-550 emission. Fluorescence values were background corrected from no treatment conditions. Data are presented ±SD for 2 runs.

One may read the Kd as a measure of binding affinity in units of concentration. Lower therefore signals a tighter complex. One may read the EC50 as the midpoint of the concentration-response curve. Lower therefore signals a more potent agent.

Peptide text beside a SMILES is read from it.

Sequence of LDLR (P01130 22-860 limits assumed): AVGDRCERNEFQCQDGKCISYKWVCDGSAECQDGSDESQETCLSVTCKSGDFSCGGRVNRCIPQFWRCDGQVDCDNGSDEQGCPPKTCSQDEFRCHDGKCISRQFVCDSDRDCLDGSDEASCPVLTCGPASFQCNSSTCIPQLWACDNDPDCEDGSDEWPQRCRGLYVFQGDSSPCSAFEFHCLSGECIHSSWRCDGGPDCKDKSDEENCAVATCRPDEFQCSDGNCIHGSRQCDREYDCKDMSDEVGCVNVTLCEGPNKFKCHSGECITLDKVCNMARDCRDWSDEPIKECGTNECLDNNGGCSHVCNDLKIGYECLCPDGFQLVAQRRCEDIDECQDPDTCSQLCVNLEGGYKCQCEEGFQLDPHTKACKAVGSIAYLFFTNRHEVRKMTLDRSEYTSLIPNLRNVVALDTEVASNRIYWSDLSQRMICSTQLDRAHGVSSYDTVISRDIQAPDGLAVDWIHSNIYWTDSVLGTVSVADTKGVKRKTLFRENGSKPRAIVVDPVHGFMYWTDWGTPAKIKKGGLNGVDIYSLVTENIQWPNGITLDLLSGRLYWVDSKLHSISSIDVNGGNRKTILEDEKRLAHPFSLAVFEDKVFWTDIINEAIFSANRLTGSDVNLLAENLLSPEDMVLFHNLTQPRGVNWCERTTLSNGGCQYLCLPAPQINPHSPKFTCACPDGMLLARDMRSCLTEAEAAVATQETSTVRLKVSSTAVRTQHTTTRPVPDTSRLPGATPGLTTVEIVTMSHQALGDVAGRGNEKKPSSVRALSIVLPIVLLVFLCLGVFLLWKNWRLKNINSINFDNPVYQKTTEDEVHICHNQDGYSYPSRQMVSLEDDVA

On to `CC(C)C[C@H](NC(=O)[C@H](CCCNC(=N)N)NC(=O)[C@H](CC(=O)O)NC(=O)[C@H](CCC(N)=O)NC(=O)[C@H](CC(C)C)NC(=O)[C@H](CCCCN)NC(=O)[C@H](CC(=O)O)NC(=O)CNC(=O)[C@H](CC(=O)O)NC(=O)[C@H](CCCNC(=N)N)NC(=O)[C@H](Cc1ccccc1)NC(=O)[C@H](CC(C)C)NC(=O)[C@H](CCCNC(=N)N)NC(=O)[C@H](CCCCN)NC(=O)[C@H](CCCNC(=N)N)NC(=O)[C@H](CC(C)C)NC(=O)[C@H](CCCCN)NC(=O)[C@H](CCCNC(=N)N)NC(=O)[C@H](CC(C)C)NC(=O)[C@@H](N)Cc1c[nH]cn1)C(=O)N[C@@H](C)C(=O)N[C@@H](CCC(=O)O)C(=O)N[C@@H](Cc1ccc(O)cc1)C(=O)N[C@@H](CCC(N)=O)C(=O)N[C@@H](C)C(=O)N[C@@H](CCCNC(=N)N)C(=O)N[C@@H](C)C(=O)N[C@@H](CCCCN)C(=O)N[C@@H](CCC(=O)O)C(=O)N[C@@H](C)C(=O)N[C@@H](Cc1ccccc1)C(=O)N[C@@H](CC(=O)O)C(=O)N[C@@H](CCCNC(=N)N)C(=O)O` [T-060] (H-HLRKLRKRLFRDGDKLQDRLAEYQARAKEAFDR-OH; N-terminus and C-terminus assumed), for which the Kd at LDLR is 150 ± 41.7 µM.
Regarding `CSCC[C@H](NC(=O)[C@H](CC(C)C)NC(=O)[C@H](CC(=O)O)NC(=O)[C@H](CCCCN)NC(=O)CNC(=O)[C@H](Cc1ccc(O)cc1)NC(=O)[C@H](CC(=O)O)NC(=O)[C@@H](NC(=O)[C@@H](NC(=O)[C@@H](NC(=O)[C@H](CCC(N)=O)NC(=O)[C@H](Cc1ccccc1)NC(=O)[C@H](Cc1ccc(O)cc1)NC(=O)[C@H](CCC(N)=O)NC(=O)[C@H](CO)NC(=O)[C@@H](NC(=O)[C@H](CC(C)C)NC(=O)[C@H](CO)NC(=O)[C@H](CCCNC(=N)N)NC(=O)[C@H](CC(C)C)NC(=O)[C@H](CC(C)C)NC(=O)[C@H](CCCNC(=N)N)NC(=O)[C@H](CCCCN)NC(=O)[C@H](CCCNC(=N)N)NC(=O)[C@H](CC(C)C)NC(=O)[C@H](CCCCN)NC(=O)[C@H](CCCNC(=N)N)NC(=O)[C@H](CC(C)C)NC(=O)[C@@H](N)Cc1c[nH]cn1)C(C)C)[C@@H](C)O)C(C)C)[C@@H](C)O)C(=O)O` [T-027] (H-HLRKLRKRLLRSLVSQYFQTVTDYGKDLM-OH; N-terminus and C-terminus assumed), the concentration for a half-maximal effect (EC50) in the test on ARPE-19 cells [1] worked out at 40.1 µM; in test [3] (3.16-100 μM peptides, 15 minutes), 56.6 µM. In addition, the cholesterol import titration result in the test with HepG2 cells [2] is given as “concentration-dependent cholesterol import activity”; in the test on ARPE-19 cells [4] it was “concentration-dependent increase in cholesterol import”. Also, in test [3] (FIGS. 2A-2D and 3A-3C), the DMPC solubilizing activity entry is reported as “significant activity”. For the same compound, the “GAG dependence of cholesterol import” value in the test on ARPE-19 cells [5] and in the test with HepG2 cells [6] was “rely on GAG binding for cholesterol import activity” each time.

The values above are taken from US20260115250A1, “METHODS OF TREATING AGE-RELATED MACULAR DEGENERATION” (Character Biosciences, Inc., priority 2022, published 2026).
